According to article PMC9692097, “Immunosuppressants Tacrolimus and Sirolimus revert the cardiac antifibrotic properties of p38-MAPK inhibition in 3D-multicellular human iPSC-heart organoids” (Frontiers in Cell and Developmental Biology, 2022):

How the values were obtained:
COL1A1 [1] = experiment: COL1A1 expression in TGF-β1 stimulated hHOs (western blot, immunocytochemistry); type: cell-based, human; details: 5 ng/ml TGF-β1 for 24 h, SB202190 10 μM, TAC 10 μM, Sirolimus 200 nM
Description: Immunofluorescence staining of hHOs was conducted as previously described. hHOs were fixed by 4% PFA solution for 45–60 min at room temperature and incubated in blocking/permeabilization solution containing 10% normal donkey serum (Abcam), 0.5% Triton X-100 (nacalai tesque) and 0.5% BSA (nacalai tesque) at 4°C overnight. Subsequently, hHOs were stained with primary and secondary antibodies in PBS containing 1% normal donkey serum, 0.5% Triton X-100 and 0.5% BSA, respectively. Nuclei were stained with Hoechst 33342 (1:1000) before mounting. A confocal laser scanning microscope (Olympus FV3000) was used for fluorescent observation. Primary antibodies used are listed as follows: anti-Vimentin (1:200, ab11256, Abcam); anti-Collagen I (1:200, ab34710, Abcam); anti-WT1 (1:200, ab89901, Abcam); anti-ZO-1 (1:200, 33-9100, Invitrogen); anti-CD31/PECAM1 (1:50, ab28364, Abcam); anti-Cardiac Troponin T (1:200, ab8295, Abcam); anti-NFAT2 (1:200, ab25916, Abcam); anti-CD90/THY1 (1:200, ab133350, Abcam). […]
Cells were lysed in M-PER Mammalian Protein Extraction Reagent (78501, Thermo Scientific) buffer, and hHOs were lysed in T-PER Tissue Protein Extraction Reagent (78510, Thermo Scientific). The amount of protein was determined by Bradford assay using BSA as a standard. […]

[2] = Cytotoxic assay in cardiac fibroblasts (crystal violet, 96 h); type: cell-based; details: human, human ventricular cardiac fibroblasts (NHCF-V), NHCF-V cell line, read-out: IC50 (cytotoxicity, CF viability)
Description: SB202190, Tacrolimus, and Sirolimus were freshly and individually prepared in DMSO for each individual experiment. Cardiac fibroblasts were seeded individually in 96-well plates (5,000 cells per well). The treatment effectiveness was assayed after applying reducing concentrations in a 1:2 fixed ratio to cycling cells in the exponential phase. All treatments were assessed within reducing doses of SB202190, Tacrolimus, or Sirolimus in monotherapy or combination in fixed proportions a day after the seeding. The proliferation viability was determined by crystal violet after 96 h. Cytotoxicity profiles were measured by absorbance at 595 nm using a microplate reader; then, IC50 values were estimated using GraphPad Prism 7 software.

[3] = test system: mTORC1 downstream targets p4E-BP1 and pS6K; experiment: Western blot for pathway targets in NHCF-V; type: cell-based, human; details: 200 nM
Description: (§1) Cells were lysed in M-PER Mammalian Protein Extraction Reagent (78501, Thermo Scientific) buffer, and hHOs were lysed in T-PER Tissue Protein Extraction Reagent (78510, Thermo Scientific). The amount of protein was determined by Bradford assay using BSA as a standard. The primary antibodies were purchased from commercial sources as follows: anti-phospho-S6 Ribosomal Protein (1:1000, 5364, CST); anti-phospho-4E-BP1 (1:1000, 2855, CST); anti-4E-BP1 (1:1000, 9644, CST); anti-phospho-p38 (1:1000, 4631, CST); anti-p38 (1:1000, 9212, CST); anti-phospho-AKT (1:1000, 9271, CST); anti-Collagen I (1:1000, ab34710, abcam); anti-IL-11 (1:1000, ab76589, abcam); anti-β-actin (1:1000, A5441, Sigma). The secondary antibodies used are as follows: goat anti-rabbit IgG (HRP) (1:5000, sc-2054, Santa cruz), and anti-mouse IgG (HRP) (1:5000, 7076, CST).

COL1A1 [4] = experiment: COL1A1 expression in NHCF-V cardiac fibroblasts (western blot, immunocytochemistry); type: cell-based, human; details: for COL1A1 protein expression: 5 ng/ml TGF-β1 for 24 h, SB202190 10 μM, TAC 10 μM, Sirolimus 200 nM
Description: Cells were fixed by 4% PFA treatment for 15 min and stored in PBS at 4°C. Blocking was performed for 30–45 min in a blocking buffer containing 1% BSA, 0.5% Triton X-100 and 0.1 M glycine in PBS. After washing three times with PBS, primary antibody anti-Collagen I (1:200, ab34710, Abcam) was added to the blocking buffer (w/o glycine) and incubated overnight at 4°C. The next day, cells were washed three times with PBS, and secondary antibody donkey anti-rabbit Alexa Fluro 594 (1:1000, A21207, Invitrogen) was added in 1% BSA-PBS for 2 h at RT. After washing three times with PBS, 1:10,000 Hoechst 33342 was added for nuclear counterstaining. Images were taken with Keyence.
After 3 days of treatment on unstimulated CFs, we treated cells with 5 ng/ml of TGF-β1 in combination with the inhibitors for another 24 h to recapitulate pathological conditions of heart disease and induced a forced expression of ECMs, with a particular focus on COL1A1 as a major component of the Collagen type I.

IL-11 and phospho-p38 = experiment: Western blot for IL-11 and phospho-p38 in TGF-β1 stimulated hHOs; type: cell-based, human
Description: as §1

hHO spontaneous beating = experiment: Organoid beating evaluation (beating count vs untreated organoid); type: cell-based, human; details: hHOs, 96 h
From the text: For organoid beating evaluation, we measured the beating count at 10 s intervals and then compared it to the beating count of the untreated organoid for each case in biological triplicates.

[5] = test system: iPSC-derived human heart organoids (hHOs); experiment: Cardiotoxicity MTT assay in iPSC-derived human heart organoids (96 h); type: cell-based; details: hHOs day 15, MTT, read-out: IC50 (hHO cellular viability)
Description: SB202190, Tacrolimus, and Sirolimus were prepared alone or in combinations mixed in DMSO for each experiment. hHOs were differentiated and seeded separately in low-binding 96-w plates. The effectiveness of the treatment was measured after the usage of decreasing concentrations in a 1:2 ratio to day 15 of developing heart organoids. All treatments were applied by reducing dosages of SB202190, Tacrolimus, or Sirolimus in monotherapy or combination. The proliferation capacity as a functional assay was determined using an MTT assay after 96 h (4 days). Cytotoxicity profiling was drafted by obtaining absorbance metrics at 595 nm using a particular microplate reader; then, IC50 values were calculated using GraphPad Prism 7.

RAS = test system: RAS; design: method as in earlier work; details: RAS antagonist, ref Reif et al., 1999, Katzav et al., 2001, Clarke et al., 2003, 2004, Kafri et al., 2005, Nevo et al., 2011, Rokni et al., 2022; cited from earlier work

Structure (SMILES)	TGF-β1 driven COL1A1 expression / ECM depositions (COL1A1 [1])	IC50 at 96 h [2] [µM]	inhibition of mTORC1 downstream targets p4E-BP1 and pS6K [3]	COL1A1 protein expression (COL1A1 [4])	levels of IL-11 and phospho-p38 (IL-11 and phospho-p38)	safe dosages preserving average beating rates compared to untreated organoids (from ... downwards) (hHO spontaneous beating) [µM]	IC50 [5] [µM]	inflammation and fibrosis in animal models (RAS)	COL1A1 levels in TGF-β1 unstimulated condition (COL1A1 [4]; unstimulated, western blot)
CO[C@H]1C[C@@H]2CC[C@@H](C)[C@@](O)(O2)C(=O)C(=O)N2CCCC[C@H]2C(=O)O[C@H]([C@H](C)C[C@@H]2CC[C@@H](O)[C@H](OC)C2)CC(=O)[C@H](C)/C=C(\C)[C@@H](O)[C@@H](OC)C(=O)[C@H](C)C[C@H](C)/C=C/C=C/C=C/1C [Sirolimus]	this phenotype is lost in heart organoids	3.54 ± 0.2	inhibit the mTORC1 downstream targets p4E-BP1 and pS6K	independent effect in reducing COL1A1 protein expression	rescued levels of IL-11 and phospho-p38	≤ 2.5	5.01 ± 0.4		
Oc1ccc(-c2nc(-c3ccncc3)c(-c3ccc(F)cc3)[nH]2)cc1 [SB202190]	effectively reduced TGF-β1 driven COL1A1 expression	13.9		independent effect in reducing COL1A1 protein expression		≤ 100	72.4		
CC(C)=CCC/C(C)=C/CC/C(C)=C/CSc1ccccc1C(=O)O [FTS, Farnesythiosalicylic acid]								decreasing inflammation and fibrosis in animal models	
C=CC[C@@H]1/C=C(\C)C[C@H](C)C[C@H](OC)[C@H]2O[C@@](O)(C(=O)C(=O)N3CCCC[C@H]3C(=O)O[C@H](/C(C)=C/[C@@H]3CC[C@@H](O)[C@H](OC)C3)[C@H](C)[C@@H](O)CC1=O)[C@H](C)C[C@@H]2OC [Tacrolimus]		12.6		no effect		≤ 12	19.9		mildly increase COL1A1 levels
